Experimental data reported in the OPERA property sets (Mansouri et al. 2018).

Structure (SMILES) | logP
O=[N+]([O-])c1ccc2c3c(cccc13)CC2 | 3.85
Nc1ccc2c(c1)Cc1ccccc1-2 | 3.14
O=[N+]([O-])c1cc([N+](=O)[O-])c2ccccc2c1 | 2.83
Nc1cccc(C(F)(F)F)c1 | 2.29
COc1cc(-c2ccc(N)c(OC)c2)ccc1N | 1.81
Nc1cccc2c1Cc1ccccc1-2 | 3.18
Nc1ccc2ccc3cccc4ccc1c2c34 | 4.31
Nc1cc(Cl)ccc1O | 1.81
Nc1ccc(Oc2ccccc2)cc1 | 2.96
Cc1ccc(N)cc1N | 0.14
Nc1cccc2cc3ccccc3cc12 | 3.69
Nc1cc2ccccc2c2ccccc12 | 3.56
O=[N+]([O-])c1cccc2c([N+](=O)[O-])cccc12 | 2.58
Nc1ccccc1-c1ccccc1N | 1.34
Nc1ccc(Cl)cc1[N+](=O)[O-] | 2.72
Cc1ccc(O)c(N)c1 | 1.16
Cc1ccc2cccc([N+](=O)[O-])c2n1 | 1.99
COc1ccc(N)c(C)c1 | 1.23
Cc1ccc(C)c(N)c1 | 1.83
O=[N+]([O-])c1ccc2ccccc2c1 | 3.24
O=C1Nc2ccc([N+](=O)[O-])cc2C1=O | 0.47
Cc1ccc(N)c(N)c1 | 0.66
Nc1ccc2c3c(cccc13)-c1ccccc1-2 | 4.2
O=[N+]([O-])c1cccc2cccc([N+](=O)[O-])c12 | 2.52
